Experimental findings from US11945801B2, “Bicyclic aza compounds as muscarinic M1 and/or M4 receptor agonists” (Heptares Therapeutics Limited, priority 2018, dated 2024) are described below.

Where two headings read alike, the source gives them in different places.

Assay [1] addresses T1, human muscarinic M4 receptor (Homo sapiens, UniProt P08173).
T1 construct: expressed in transfected cells
T1 sequence (P08173 1-479): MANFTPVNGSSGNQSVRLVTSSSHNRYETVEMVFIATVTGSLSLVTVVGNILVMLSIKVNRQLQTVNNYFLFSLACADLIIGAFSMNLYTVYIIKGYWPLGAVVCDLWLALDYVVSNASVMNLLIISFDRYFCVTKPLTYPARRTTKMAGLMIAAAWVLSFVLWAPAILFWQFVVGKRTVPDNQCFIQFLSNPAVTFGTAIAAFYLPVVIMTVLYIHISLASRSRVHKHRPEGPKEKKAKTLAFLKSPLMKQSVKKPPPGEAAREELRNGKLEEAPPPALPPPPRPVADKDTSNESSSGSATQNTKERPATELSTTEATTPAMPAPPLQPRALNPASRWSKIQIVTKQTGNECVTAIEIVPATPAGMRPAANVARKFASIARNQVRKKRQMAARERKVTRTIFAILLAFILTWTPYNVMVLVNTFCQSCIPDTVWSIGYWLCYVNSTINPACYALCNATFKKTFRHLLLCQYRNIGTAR
Briefly: Alphascreen Surefire phospho-ERK1/2 functional assay, M4. The class given is cell-based. To be noted: for EC50 / % Emax cf. ACh, M4: CHO cells stably expressing human M4; for EC50: agonist 5 min, 37° C., read-out: pEC50 M4 (converted); for Emax: CHO. The protocol: (§1) ERK1/2 phosphorylation is a downstream consequence of both Gq/11 and Gi/o protein coupled receptor activation, making it highly suitable for the assessment of M1, M3 (Gq/11 coupled) and M2, M4 receptors (Gi/o coupled), rather than using different assay formats for different receptor subtypes. CHO cells stably expressing the human muscarinic M1, M2, M3 or M4 receptor were plated (25K/well) onto 96-well tissue culture plates in MEM-alpha+10% dialysed FBS. Once adhered, cells were serum-starved overnight. Agonist stimulation was performed by the addition of 5 μL agonist to the cells for 5 min (37° C.). Media was removed and 50 μL of lysis buffer added. After […], a 4 μL sample was transferred to 384-well plate and 7 μL of detection mixture added.
(§2) Isomer assignment (Isomer 1, Isomer 2, etc.) is based on the retention time of the compound using the separation technique that was performed in the final purification step. By implication, this could be reversed phase HPLC, chiral HPLC or chiral SFC retention time, and this will vary from compound to compound.

Assay [2] deals with T2, human muscarinic M1 receptor (Homo sapiens, UniProt P11229).
T2 sequence (P11229 1-460): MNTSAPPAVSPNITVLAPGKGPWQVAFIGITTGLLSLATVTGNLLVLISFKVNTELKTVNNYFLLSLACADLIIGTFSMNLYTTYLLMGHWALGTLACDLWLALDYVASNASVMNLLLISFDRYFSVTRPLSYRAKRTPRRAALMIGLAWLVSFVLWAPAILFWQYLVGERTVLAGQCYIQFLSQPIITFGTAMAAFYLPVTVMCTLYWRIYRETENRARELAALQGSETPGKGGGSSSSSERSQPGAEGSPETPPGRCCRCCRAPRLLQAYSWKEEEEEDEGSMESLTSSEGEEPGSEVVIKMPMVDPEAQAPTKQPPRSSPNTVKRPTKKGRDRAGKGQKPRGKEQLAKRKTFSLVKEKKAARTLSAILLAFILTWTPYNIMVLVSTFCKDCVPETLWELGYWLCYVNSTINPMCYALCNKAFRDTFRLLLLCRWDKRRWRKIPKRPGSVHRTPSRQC
The assay is described as follows: Alphascreen Surefire phospho-ERK1/2 functional assay, M1. The settings on record: for EC50: agonist 5 min, 37° C.; for Emax: CHO. The class given is cell-based. The protocol:
as §1, §2
Background: In Alpha technology, singlet oxygen from a donor bead excites a nearby acceptor bead.

Setting [3] is: CHO cells stably expressing human M1, read-out: pEC50 M1 (converted).
Setting [4] is: read-out: % Emax cf. ACh, M4, CHO cells stably expressing human M4, Emax relative to ACh.
The mark [5] stands for this setting: read-out: % Emax cf. ACh, M1, CHO cells stably expressing human M1, Emax relative to ACh.

Turning to `CCOC(=O)N1C2CCC1CC(N1CC(CC(=O)N(CC)C(C)C)C1)C2` (mixture of isomers) [Example 1-2 Isomer mixture, Ethyl-3-(3-(2-(ethyl(isopropyl)amino)-2-oxoethyl)azetidin-1-yl)-8-azabicyclo[3.2.1]octane-8-carboxylate], the results for the EC50 in assay [1] and in assay [2] (setting [3]) were greater than 20000 nM and 182 nM, respectively. For the same molecule, the maximal effect (Emax) was 7% in assay [1] (read-out: % Emax cf. ACh, M4) and 100% in assay [2] (read-out: % Emax cf. ACh, M1).
As to `CCOC(=O)N1C2CCC1CC(N1CC(OC(=O)N3CCCOCC3)C1)C2` (mixture of isomers) [Example 5-2 Isomer mixture, 1-(8-(Ethoxycarbonyl)-8-azabicyclo[3.2.1]octan-3-yl)azetidin-3-yl 1,4-oxazepane-4-carboxylate], the EC50 was greater than 20000 nM in assay [1] and 2240 nM in assay [2] (setting [3]). In addition, the Emax in assay [1] (read-out: % Emax cf. ACh, M4) was found to be 19%; in assay [2] (read-out: % Emax cf. ACh, M1) it was 92%.
For `CCOC(=O)N1C2CCC1CC(N1CC(CC(=O)N3CCC34CCC4)C1)C2` (single isomer, unassigned) [Example 1-3 Isomer 2, Ethyl-3-(3-(2-oxo-2-(1-azaspiro[3.3]heptan-1-yl)ethyl)azetidin-1-yl)-8-azabicyclo[3.2.1]octane-8-carboxylate], in that order: greater than 20000 nM, 115 nM, 19% and 103%.
In the case of `CCOC(=O)N1CC2CCC1CC2N1CC(CC(=O)N2CCCOCC2)C1` (single isomer, unassigned) [Example 2-4 Isomer 1, Ethyl-5-(3-(2-(1,4-oxazepan-4-yl)-2-oxoethyl)azetidin-1-yl)-2-azabicyclo[2.2.2]octane-2-carboxylate], the EC50 in assay [1] was greater than 20000 nM; in assay [2] (setting [3]), 1020 nM. For the same molecule, the maximum response (Emax) in assay [1] (setting [4]) stood at 9%; in assay [2] (setting [5]), 58%.
As for `CCOC(=O)N1C2CCCC1CC(N1CC(CC(=O)N(CC)CC)C1)C2` (single isomer, unassigned) [Example 3-1 Isomer 1, Ethyl-3-(3-(2-(diethylamino)-2-oxoethyl)azetidin-1-yl)-9-azabicyclo[3.3.1]nonane-9-carboxylate], the EC50 in assay [1] was greater than 20000 nM; in assay [2] (setting [3]), 813 nM. In addition, the Emax stood at 23% in assay [1] (read-out: % Emax cf. ACh, M4) and 106% in assay [2] (read-out: % Emax cf. ACh, M1).
Regarding `CCOC(=O)N1C2CCCC1CC(N1CC(CC(=O)N3CCCC3)C1)C2` (single isomer, unassigned) [Example 3-2 Isomer 1, Ethyl-3-(3-(2-oxo-2-(pyrrolidin-1-yl)ethyl)azetidin-1-yl)-9-azabicyclo[3.3.1]nonane-9-carboxylate], the EC50 in assay [1] was 933 nM; in assay [2] (setting [3]), 4790 nM. Further, the Emax in assay [1] (read-out: % Emax cf. ACh, M4) turned out to be 68%; in assay [2] (read-out: % Emax cf. ACh, M1), 68%.
Regarding `CCOC(=O)N1CCC2(CC(N3CC(OC(=O)N4CCCOCC4)C3)C2)C1` (single isomer, unassigned) [Example 4-3 Isomer 2, 1-(6-(Ethoxycarbonyl)-6-azaspiro[3.4]octan-2-yl)azetidin-3-yl 1,4-oxazepane-4-carboxylate], the EC50 in assay [1] was 1020 nM; in assay [2] (setting [3]), 372 nM. For the same molecule, the results for the Emax in assay [1] (setting [4]) and in assay [2] (setting [5]) were 46% and 104%, respectively.
Consider `CCOC(=O)N1CC2(CCC(N3CC(OC(=O)N(CC)CC)C3)C2)C1` (single isomer, unassigned) [Example 4-5 Isomer 2, Ethyl 6-(3-((diethylcarbamoyl)oxy)azetidin-1-yl)-2-azaspiro[3.4]octane-2-carboxylate], for which, in assay [1] (Emax relative to ACh, listed as 4-5 Isomer 2), the “% Emax cf. ACh, M4” value amounted to 10%. Moreover, the EC50 was greater than 20000 nM in assay [1] and 1120 nM in assay [2] (setting [3]). Further, in assay [2] (CHO cells stably expressing human M1, Emax relative to ACh, listed as 4-5 Isomer 2), the “% Emax cf. ACh, M1” value amounted to 44%.
Consider `CCN(CC)C(=O)OC1CN(C2CCC3(C2)CN(C(=O)OC)C3)C1` (single isomer, unassigned) [Example 4-6 Isomer 1, Methyl 6-(3-((diethylcarbamoyl)oxy)azetidin-1-yl)-2-azaspiro[3.4]octane-2-carboxylate], for which the EC50 in assay [1] was 1120 nM; in assay [2] (setting [3]), 631 nM. Moreover, the Emax in assay [1] (setting [4]) was 33%; in assay [2] (setting [5]), 92%.
As for `CCOC(=O)N1CC2(CCC(N3CC(OC(=O)N4CCCOCC4)C3)C2)C1` (single isomer, unassigned) [Example 4-9 Isomer 2, 1-(2-(Ethoxycarbonyl)-2-azaspiro[3.4]octan-6-yl)azetidin-3-yl 1,4-oxazepane-4-carboxylate], the “% Emax cf. ACh, M4” value in assay [1] (Emax relative to ACh, listed as 4-9 Isomer 2) was 85%. Further, the values for the EC50 in assay [1] and in assay [2] (setting [3]) were 389 nM and 5620 nM, respectively. Further, in assay [2] (CHO cells stably expressing human M1, Emax relative to ACh, listed as 4-9 Isomer 2), the “% Emax cf. ACh, M1” value is reported as 84%.
As to `CCOC(=O)N1CC2CCC1CC2N1CC(OC(=O)N(CC)CC)C1` (single isomer, unassigned) [Example 6-1 Isomer 1, Ethyl 5-(3-((diethylcarbamoyl)oxy)azetidin-1-yl)-2-azabicyclo[2.2.2]octane-2-carboxylate], the EC50 is greater than 20000 nM in assay [1] and 1050 nM in assay [2] (setting [3]). Moreover, the maximum response (Emax) in assay [1] (setting [4]) came out at 9%; in assay [2] (setting [5]), 65%.
In the case of `CCOC(=O)N1CC2CCC1CC2N1CC(OC(=O)N2CCCC2)C1` (single isomer, unassigned) [Example 6-2 Isomer 1, Ethyl 5-(3-((pyrrolidine-1-carbonyl)oxy)azetidin-1-yl)-2-azabicyclo[2.2.2]octane-2-carboxylate], the EC50 is 646 nM in assay [1] and 6920 nM in assay [2] (setting [3]). Also, the Emax in assay [1] (setting [4]) was 55%; in assay [2] (setting [5]), 83%.
As for `CCOC(=O)N1CC2CCC1CC2N1CC(OC(=O)N2CCCCC2)C1` (single isomer, unassigned) [Example 6-3 Isomer 1, Ethyl 5-(3-((piperidine-1-carbonyl)oxy)azetidin-1-yl)-2-azabicyclo[2.2.2]octane-2-carboxylate], the EC50 in assay [1] was 1620 nM; in assay [2] (setting [3]) it was 355 nM. Moreover, the Emax in assay [1] (setting [4]) came out at 35%; in assay [2] (setting [5]), 92%.
For `CCOC(=O)N1CC2CCC1CC2N1CC(OC(=O)N2CCCOCC2)C1` (single isomer, unassigned) [Example 6-5 Isomer 1, 1-(2-(Ethoxycarbonyl)-2-azabicyclo[2.2.2]octan-5-yl)azetidin-3-yl 1,4-oxazepane-4-carboxylate], in that order: greater than 20000 nM, 813 nM, 27% and 58%.
Regarding `CCOC(=O)N1C2CCCC1CC(N1CC(OC(=O)N(CC)CC)C1)C2` (single isomer, unassigned) [Example 7-1 Isomer 1, Ethyl 3-(3-((diethylcarbamoyl)oxy)azetidin-1-yl)-9-azabicyclo[3.3.1]nonane-9-carboxylate], the EC50 in assay [1] was 2290 nM; in assay [2] (pEC50 M1, CHO cells stably expressing human M1), 1290 nM. The Emax was determined as 29% in assay [1] (read-out: % Emax cf. ACh, M4) and 88% in assay [2] (read-out: % Emax cf. ACh, M1).
Consider `CCOC(=O)N1C2COCC1CC(N1CC(OC(=O)N3CCCCCC3)C1)C2` (single isomer, unassigned) [Example 8-1 Isomer 1, Ethyl 7-(3-((azepane-1-carbonyl)oxy)azetidin-1-yl)-3-oxa-9-azabicyclo[3.3.1]nonane-9-carboxylate], for which the values for the EC50 in assay [1] and in assay [2] (setting [3]) were 1860 nM and 257 nM, respectively. Besides, the maximal effect (Emax) is 43% in assay [1] (read-out: % Emax cf. ACh, M4) and 104% in assay [2] (read-out: % Emax cf. ACh, M1).
Regarding `CCOC(=O)N1CC2(CC(N3CC(OC(=O)N(CC)CC)C3)C2)C1` [Example 4-1, Ethyl 6-(3-((diethylcarbamoyl)oxy)azetidin-1-yl)-2-azaspiro[3.3]heptane-2-carboxylate], the EC50 in assay [1] was 1700 nM; in assay [2] (setting [3]), 832 nM. The Emax in assay [1] (setting [4]) is 57%; in assay [2] (setting [5]) it was 83%.

By Emax is commonly meant the size of the effect at its maximum, as opposed to the concentration needed.
